How the values were obtained:
[1] = Vital signs (blood pressure, pulse rate, respiration rate, oral temperature) in healthy men; type: in vivo, human; settings: for oral body temperature, Subject 042 / oral body temperature, Subject 046 / oral body temperature, Subject 053 / oral body temperature, Subject 055: 300 μg/kg
Procedure: Safety assessments during the study period included vital sign measurement (systolic [SBP] and diastolic [DBP] blood pressure, heart rate [HR], respiratory rate [RR] in the sitting position, and oral temperature), clinical chemistry, hematology, urinalysis, 12-lead electrocardiogram (ECG) in the supine position, and AE monitoring. Clinical chemistry/hematology samples were drawn within a 30-minute period prior to dosing on selected dosing days.
Vital signs were measured immediately prior to dosing, every hour for the first 6 hours post-dosing, then every 3 hours up to 12 hours post-dosing.
Vital signs, including SBP, DBP, RR, and HR were done at Screening, on each day immediately before and at 1, 3, and 6 hours after each SC injection, and at 24 hours after the last injection on Day 7. On Day 1, they were taken every hour for the first 6 hours, then every 3 hours up to 12 hours after the dose.

[2] = system: CD8 cells in peripheral blood; assay: Flow cytometry of peripheral blood, CD8 lymphocytes; USB003 SC once daily for 7 days in healthy men; type: in vivo, human; design: key to Subjects with shift, Absolute CD8, N-L (normal to low) / Subjects with shift, Absolute CD8, L-N (low to normal) / Subjects with shift, Absolute CD8, H-N (high to normal) / Subjects with shift, Absolute CD8, N-H (normal to high): — signifies subject with no shift from baseline; settings: for CD8, Absolute, Mean at Baseline: Baseline (Day 1)
Procedure: • Single-center, randomized, double-blind, placebo-controlled, 2 cohort dose-escalation trial of once daily dosing over a 7-day period (7 doses total): • Cohort 1: 2 subjects treated with placebo and 8 subjects treated with 200 μg/kg USB003 (A(1-7)) • Cohort 2: 2 subjects treated with placebo and 8 subjects treated with 300 μg/kg USB003 • For each cohort, there was a Screening Period, Treatment Phase, Follow-up Period, and Study Termination or Early Withdrawal Day. Subjects were confined to the study unit during the Treatment Phase. • Cohort 2 was treated approximately 1 week after completion of the Treatment Phase for Cohort 1 to allow time for the assessment of safety and tolerability in the first cohort.
Pharmacological Effect: The following evaluations (under efficacy and safety in the protocol) were performed: • Effects on the number of mature blood cells: • 1. CBC (with differential), platelet count, reticulocyte count. • Effects on early hematopoietic progenitor cells and mature lymphocyte subsets in the periphery: • 1. Flow cytometry to evaluate frequency of peripheral blood progenitor cells (eg, CD34^+) and lymphocyte subsets (eg, CD3, CD4, CD8) in peripheral blood. • 2. Collection of blood for later possible culture for progenitor cells (eg, colony forming units-granulocyte/macrophage [CFU-GM]) to evaluate potential effects on CD34^+ hematopoietic progenitor cells in peripheral blood. • 3.
The effect of USB003 on the number of mature blood cells was assessed by the complete blood count with differential, platelet and reticulocyte counts. The effects on early hematopoietic progenitor cells and mature lymphocyte subsets in the periphery were assessed by flow cytometry. In addition, blood was collected and processed to enable culture of progenitors at a later time.
Red blood cell (RBC) count, RBC indices, white blood cell count (WBC) with differential, reticulocyte count, platelet count, hemoglobin (Hb), hematocrit (Hct), plasma hemoglobin, peripheral flow cytometry, including CD34^+, flow cytometry for enumeration of CD3, CD4, and CD8 lymphocytes, and culture for progenitor cells in peripheral blood including colony-forming units-granulocyte/macrophage (CFU-GM).

[3] = approximately 6 hours after Day 3 study medication

For Asp-Arg-Val-Tyr-Ile-His-Pro [USB003], the “change from baseline in mean body temperatures” value ([1]; 300 μg/kg dose group compared to 200 μg/kg, especially 6-hour post-dose, Study Day 3) was “clearly notable increase”, the “oral body temperature, Subject 042” value ([1]; Day 1, 4-hour post-dose) was 37.8 °C and the “oral body temperature, Subject 042” value ([1]; Day 1, 9-hour post-dose) was 38.1 °C. For the same substance, the “oral body temperature, Subject 042” value ([1]; Day 1, one hour after first dose) was 37.4 °C, the “oral body temperature, Subject 042” value ([1]; Day 2, 6-hour-post-dose) was 38.7 °C and the “oral body temperature, Subject 042” value ([1]; Day 2 pre-dose) was 37.4 °C. For the same substance, the “oral body temperature, Subject 046” value ([1]; Day 2 pre-dose) was 35.9 °C, the “oral body temperature, Subject 046” value ([1]; Day 3, 6-hour post-dose) was 37.9 °C and the “oral body temperature, Subject 046” value ([1]; Day 4 pre-dose) was 36.8 °C. For the same substance, the “oral body temperature, Subject 053” value ([1]; Day 4 pre-dose) was 36.4 °C, the “oral body temperature, Subject 055” value ([1]; Day 4 pre-dose) was 37.1 °C and the “oral body temperature, Subject 053” value ([1]; Day 7 pre-dose) was 37.0 °C. The “oral body temperature, Subject 042” value ([1]; Day 8) was 36.9 °C, the “oral body temperature, Subject 053” value [1, 3] was 37.8 °C and the “oral body temperature, Subject 055” value [1, 3] was 38.0 °C. For the same substance, the “oral body temperature, Subject 053” value ([1]; approximately 6 hours after Day 6 study medication) was 37.9 °C, the “oral body temperature, Subject 046” value ([1]; approximately 7 hours and 45 minutes after first dosing) was 37.8 °C and the “oral body temperature, Subject 046” value ([1]; approximately 14 hours after the first dose) was 38.0 °C. The “oral body temperature, Subject 046” value ([1]; one hour after first dose) was 37.3 °C, the “changes from baseline for the mean RR” value ([1]; all measured time points) was “no clinically meaningful changes” and the “mean change in pulse rate” value ([1]; by 3-hour post-dose in all treatment groups, continuing in the USB003 groups at last vital sign of the day) was “mildly notable increase”. The “change in mean SBP and DBP compared to baseline” value ([1]; no apparent difference in dose groups) was “mild decrease”, the “CD8, Absolute, Mean at Baseline” value ([2]; 200 μg/kg) was 564.6 cells/μL and the “Subjects with shift, Absolute CD8, H-N (high to normal)” value (shortened to “Subjects with shift, Absolute CD8, H-N”) ([2]; 200 μg/kg, Baseline to Day 8) was “—”. The “Subjects with shift, Absolute CD8, L-N (low to normal)” value (“Subjects with shift … (low to normal)” below) ([2]; 200 μg/kg, Baseline to Day 8) was “—”, the “Subjects with shift, Absolute CD8, N-H (normal to high)” value (“Subjects with shift, Absolute CD8, N-H” for short) ([2]; 200 μg/kg, Baseline to Day 8) was 1 and the “Subjects with shift, Absolute CD8, N-L (normal to low)” value (shortened to “Subjects with shift … (normal to low)”) ([2]; 200 μg/kg, Baseline to Day 8) was “—”. The “Subjects with shift, Absolute CD8, H-N” value ([2]; 200 μg/kg, Baseline to Day 20) was “—”, the “Subjects with shift … (low to normal)” value ([2]; 200 μg/kg, Baseline to Day 20) was “—” and the “Subjects with shift, Absolute CD8, N-H” value ([2]; 200 μg/kg, Baseline to Day 20) was “—”. The “Subjects with shift … (normal to low)” value ([2]; 200 μg/kg, Baseline to Day 20) was “—”, the “CD8, Absolute, Mean Change from Baseline” value ([2]; 200 μg/kg, Day 3) was −34.2 cells/μL and the “CD8, Absolute, Mean Change from Baseline” value ([2]; 200 μg/kg, Day 5) was 31.9 cells/μL. The “CD8, Absolute, Mean Change from Baseline” value ([2]; 200 μg/kg, Day 7) was 0.0 cells/μL, the “CD8, Absolute, Mean Change from Baseline” value ([2]; 200 μg/kg, Day 8) was −3.3 cells/μL and the “CD8, Absolute, Mean Change from Baseline” value ([2]; 200 μg/kg, Day 17) was −52.8 cells/μL. For the same substance, the “CD8, Absolute, Mean Change from Baseline” value ([2]; 200 μg/kg, Day 20) was −31.7 cells/μL, the “CD8, Absolute, Mean at Baseline” value ([2]; 300 μg/kg) was 452.1 cells/μL and the “Subjects with shift, Absolute CD8, H-N” value ([2]; 300 μg/kg, Baseline to Day 8) was “—”. The “Subjects with shift … (low to normal)” value ([2]; 300 μg/kg, Baseline to Day 8) was “—”, the “Subjects with shift, Absolute CD8, N-H” value ([2]; 300 μg/kg, Baseline to Day 8) was 1 and the “Subjects with shift … (normal to low)” value ([2]; 300 μg/kg, Baseline to Day 8) was “—”. The “Subjects with shift, Absolute CD8, H-N” value ([2]; 300 μg/kg, Baseline to Day 20) was “—”, the “Subjects with shift … (low to normal)” value ([2]; 300 μg/kg, Baseline to Day 20) was “—” and the “Subjects with shift, Absolute CD8, N-H” value ([2]; 300 μg/kg, Baseline to Day 20) was “—”. The “Subjects with shift … (normal to low)” value ([2]; 300 μg/kg, Baseline to Day 20) was “—”, the “CD8, Absolute, Mean Change from Baseline” value ([2]; 300 μg/kg, Day 3) was 59.5 cells/μL and the “CD8, Absolute, Mean Change from Baseline” value ([2]; 300 μg/kg, Day 5) was 71.0 cells/μL. The “CD8, Absolute, Mean Change from Baseline” value ([2]; 300 μg/kg, Day 7) was 93.6 cells/μL, the “CD8, Absolute, Mean Change from Baseline” value ([2]; 300 μg/kg, Day 8) was 45.1 cells/μL and the “CD8, Absolute, Mean Change from Baseline” value ([2]; 300 μg/kg, Day 17) was −47.3 cells/μL. For the same substance, the “CD8, Absolute, Mean Change from Baseline” value ([2]; 300 μg/kg, Day 20) was 26.8 cells/μL.

Source: patent publication US20090227507A1, “Angiotensin (1-7) Dosage Forms and Uses Thereof” (UNIVERSITY OF SOUTHERN CALIFORNIA, priority 2008, published 2009)
